Results reported in US9498546B2, “Synthesis and application of novel imaging agents conjugated to DPA 713 analogs for imaging inflammation” (THE JOHNS HOPKINS UNIVERSITY, priority 2012, dated 2016).
“Also recorded” adds a separate entry of the source.

How the values were obtained:
[1] = system: CD68+ macrophages in MDA-MB-231 xenografts; test: Ex vivo fluorescence microscopy of MDA-MB-231 xenografts; format: in vivo, mice; conditions: 24 hours post-injection
Description: FIG. 6 is a series of photomicrographs of ex vivo fluorescence microscopy of DPA-713-IRDye680LT in MDA-MB-231 xenografts at 24 hours post-injection.
Ex vivo DPA-713-IRDye680LT microscopy. The mice used in the in vivo NIRF studies (PC-3 analog xenografts and MDA-MB-231 analog xenografts) were sacrificed at the end of their studies and their tumors were collected and frozen on dry ice for cryosectioning to 20 microns on charged glass slides (VWR). The sections were then probed with both anti-TSPO Ab (Novus Biologicals NBP1-45769, 1:70) labeled directly with Lissamine sulfonyl chloride (Aldrich) according to the known method and anti-CD68 Ab (Abcam ab53444, 1:40) and lastly with Hoechst 33342 (Invitrogen, 1 ng/mL). Both antibodies were added simultaneously in a 10% FBS in PBS solution applied directly to the freshly thawed sections and allowed to sit at room temperature for 1 hour. The sections were washed twice at room temperature for 5 minutes each with PBS prior to the addition of sheep-anti-rat-FITC (Abcam ab6848-1, 1:250) in PBS at room temperature for 30 minutes. The secondary antibody solution was removed and the slides were bathed in Hoechst solution (PBS) for 1.5 minutes at room temperature before being washed twice as before with PBS. […] All images are recorded and processed using Nikon Imaging Software Elements. […]

[2] = system: CD68+ macrophages in PC-3 PIP and PC-3 flu xenografts; test: Ex vivo fluorescence microscopy of PC-3 PIP and PC-3 flu xenografts; format: in vivo, mice
Description: FIG. 8 is a series of photomicrographs showing ex vivo fluorescence microscopy of DPA-713-IRDye680LT in PC-3 PIP and PC-3 flu xenografts at 24 hours post-injection. […] A & B. PIP tumor DPA-713-IRDye680LT only; C.
Ex vivo DPA-713-IRDye680LT microscopy. The mice used in the in vivo NIRF studies (PC-3 analog xenografts and MDA-MB-231 analog xenografts) were sacrificed at the end of their studies and their tumors were collected and frozen on dry ice for cryosectioning to 20 microns on charged glass slides (VWR). The sections were then probed with both anti-TSPO Ab (Novus Biologicals NBP1-45769, 1:70) labeled directly with Lissamine sulfonyl chloride (Aldrich) according to the known method and anti-CD68 Ab (Abcam ab53444, 1:40) and lastly with Hoechst 33342 (Invitrogen, 1 ng/mL). Both antibodies were added simultaneously in a 10% FBS in PBS solution applied directly to the freshly thawed sections and allowed to sit at room temperature for 1 hour. The sections were washed twice at room temperature for 5 minutes each with PBS prior to the addition of sheep-anti-rat-FITC (Abcam ab6848-1, 1:250) in PBS at room temperature for 30 minutes. The secondary antibody solution was removed and the slides were bathed in Hoechst solution (PBS) for 1.5 minutes at room temperature before being washed twice as before with PBS. The slides were then mounted in Dako Cytomation aqueous mounting media with a glass coverslip and viewed 30 minutes later using a Nikon 80i upright epifluorescence microscope equipped with a Nikon DS-QilMc darkfield CCD camera and excited by a Nikon Intensilight C-HGFI lamp. All images are recorded and processed using Nikon Imaging Software Elements.
FIG. 9 depicts a series of NIRF image showing in vivo, ex vivo and in vitro binding of DPA-713-IRDye800CW to androgen sensitive (TSPO−) LNCaP (9E), androgen insensitive (TSPO+) PC-3 prostate xenografts and TSPO+ subcutaneous and orthotopic U87 GBM xenografts.

[3] = system: TSPO+ MDA-MB-231 / MDA-MB-231-PSMA xenografts; test: In vivo NIRF imaging in TSPO+ MDA-MB-231 breast cancer xenograft bearing mice; design: species or system NOD-SCID mice; conditions: 6 nmol intraperitoneally; imaged 1-24 hours
Description: Cell lines and Tumor Models. Generation of MDA-MD-231-LMD-PSMA cells. LV-PSMA is a VSV-G pseudotyped lentivirus encoding PSMA which was packaged in 293T cells. LMD-PSMA cells were generated in-house by repetitive lentiviral transduction of a cell line isolated from a lung metastasis derived MDA-MB-231 xenograft in a female NOD-SCID mouse. PSMA expression was evaluated by western blot analysis with 7E11-05 (1:200 dilution). […] Six-to-eight week old female NOD SCID mice were injected subcutaneously with 5×10^6 MDA-MB-231-LMD (a lung metastasis-derived subline of parental MDA-MB-231 behind the right forearm and 5×10^6 MDA-MB-231-LMD-PSMA (the same cell line with Prostate Specific Membrane Antigen (PSMA) stably knocked in via lentiviral vector) injected behind the […] xenografts were allowed to grow until the PSMA xenograft was at least 3 mm in diameter while the −LMD xenograft had reached 6-8 mm in diameter.
Serial in vivo NIRF imaging in TSPO+MDA-MB-231 LMD±PSMA and PC-3 PIP and -flu tumor xenograft bearing mice. MDA-MB-231 LMD lines: one mouse was imaged serially at 1 hour post-tracers, 4 hours, 8 hours and 24 hours post-tracers using a Pearl Impulse Imager (LI-COR Biosciences) with dedicated 710 and 800 nm emission filters. All images were scaled to the same maximum using the manufacturer's software to facilitate direct comparison of all timepoints. […]

## CCN(CC)C(=O)Cc1c(-c2ccc(OCCNC(=O)CCCCc3cccc(C(=C\C=C4/N(CCCS(=O)(=O)O)c5ccc6c(S(=O)(=O)O)cc(S(=O)(=O)O)cc6c5C4(C)C)/C=C/C4=[N+](CCCS(=O)(=O)[O-])c5ccc6c(S(=O)(=O)O)cc(S(=O)(=O)O)cc6c5C4(C)C)c3)cc2)nn2c(C)cc(C)nc12 [DPA-713-IRDye680LT, 3-(2-((1E,3Z,5Z)-3-(3-(5-(2-(4-(3-(2-(diethylamino)-2-oxoethyl)-5,7-dimethylpyrazolo[1,5-a]pyrimidin-2-yl)phenoxy)ethylamino)-5-oxopentyl)phenyl)-5-(1,1-dimethyl-6,8-disulfo-3-(3-sulfopropyl)-1Hbenzo[e]indol-2(3H)-ylidene)penta-1,3-dienyl)-1,1-dimethyl-6,8-disulfo-1H-benzo[e]indolium-3-yl)propane-1-sulfonate]
[1]
  Cell-specific localization of probe in xenograft sections: selectively retained by CD68-expressing macrophages; also recorded: sequestered within CD68+ macrophages
[2]; 24 hours of in vivo biodistribution
  Cell-specific accumulation of probe in prostate tumor xenografts: accumulated specifically within CD68+ macrophages
[2]; 24 hours post-injection
  Probe accumulation, PC-3 PIP compared with PC-3 flu xenografts: PC-3 PIPs accumulate more
[2]; co-injection with 20 mg/kg unlabeled DPA-713, 24 hours post-injection
  Blocking of probe accumulation by unlabeled DPA-713: accumulation is blocked
[3]
  Probe uptake in the larger (8 mm) PSMA+ xenograft: visible 1 hour following peritoneal injection and continues through 24 hours after injection
  Probe uptake in the smaller (3 mm) parental xenograft: no observable uptake until the fur and skin are removed at 24 hours post-injection
